{"source": "patent US20040219626A1", "about": "“Method for identifying fungicidally active compounds” (priority 2002, published 2004)", "key": {"[1]": {"biological_target": "farnesyl-pyrophosphate synthase (Saccharomyces cerevisiae, UniProt P08524)", "experiment": "farnesyl-pyrophosphate synthase inhibition assay (coupled assay, malachite green, 384-well MTP)", "type": "biochemical", "conditions": "read-out: p150 (converted)", "source_text": "A preferred method exploits the fact that two pyrophosphate molecules are liberated in the farnesyl-pyrophosphate synthase reaction. The activity, or the decrease or increase in activity, of the polypeptide according to the invention can thus be determined by enzymatically cleaving the pyrophosphate by means of inorganic pyrophosphatase and subsequently detecting the orthophosphate which has been liberated, using a phosphate detection reagent. The lower, or inhibited, activity of the polypeptide according to the invention is monitored with reference to the photospectrometric determination of the decrease or increase, of the orthophosphate which has been liberated. The concentration of phosphate which has been liberated can then be determined with a phosphate detection reagent at an absorption maximum at 620 nm.\nThe measurement can also be carried out in formats conventionally used for HTS or UHTS assays, for example in microtitre plates, into which for example a total volume of 5 to 50 μl is introduced per reaction or per well and the individual components are present in one of the above-stated final concentrations (cf. Example 2). […] The polypeptide according to the invention is then added in the abovementioned assay buffer containing the auxiliary enzyme inorganic pyrophosphatase, which is required for the coupled assay, thus starting the reaction. The mixture is then incubated for example for up to 40 minutes at a suitable temperature, and the increase in absorption is measured at 620 nm.\nA further measurement is carried out in a corresponding mixture, but without addition of a candidate molecule and without addition of a polypeptide according to the invention (negative control). Another measurement, in turn, is carried out in the absence of a candidate molecule, but in the presence of the polypeptide according to the invention (positive control). The negative and the positive controls thus provide the reference values for the mixtures in the presence of a candidate molecule.\nA pI50 value of 8, for example, corresponds to half the maximum inhibition of the enzyme at a concentration of 10 nM.\n384-well microtitre plates from Greiner were used for identifying farnesyl-pyrophosphate synthase modulators.\nThe negative control was pipetted into the first column.\nThe positive control was pipetted into the second column.\nA test substance in a concentration of 2 μM in DMSO was introduced into the remaining columns, 5 μl of the assay buffer being used for diluting the substance to a volume of. […] This was followed by incubation at room temperature for 40 minutes. The reaction was subsequently quenched by addition of 50 μl of malachite green solution (three parts of 0.025% malachite green solution (in water) were mixed with one part of 2% ammonium heptamolybdate solution (in 4 M HCl) and 39 parts of this solution were mixed with one part of 7.5% Tween 20 (in water) immediately prior to testing) and the mixture was incubated for 90 minutes at room temperature. The orthophosphate generated during the reaction was measured by determining the absorption at 620 nm in a Tecan […]luor Plus suitable for MTPs."}, "[2]": {"test_system": "Phytophthora infestans (Plant affected: tomato)", "type": "in vivo", "conditions": "concentration at which an efficacy of 50% was achieved, protective"}, "[3]": {"test_system": "Alternaria solani (plant affected: tomato)", "experiment": "protective action for plants (spray, inoculation)", "type": "in vivo", "conditions": "concentration for 50% efficacy", "experimental": "(§1) The effect, on fungi, of compounds found with the aid of a method according to the invention can also be assayed by testing their protective action for plants. To this end a suitable active substance preparation is prepared. For example 1 part by weight of active substance is mixed with, for example, 24.5 parts by weight of acetone and 24.5 parts by weight of dimethylformamide and 1 part by weight of alkylaryl polyglycol ether as emulsifier, and the concentrate is diluted to the desired concentration.\n(§2) To test for protective action, young plants are sprayed with the active substance preparation. After the spray coating has dried on, the plants are inoculated with an aqueous suspension (conidia suspension) of a fungus and then remain for 1 day in an incubation chamber at approximately 20° C. and 100% relative atmospheric humidity.\n(§3) The plants are then placed in a greenhouse at approx. 12° C. and a relative atmospheric humidity of approx. 90%.\n(§4) The test is evaluated 1 to 12 days after the inoculation. 0% means an efficacy which corresponds to that of the control, while an efficacy of 100% means that no disease is observed.\n(§5) The examples in question can be seen from the fact that an affected plant has been stated."}, "[4]": {"test_system": "Erysiphe graminis (plant affected: barley)", "experiment": "protective action for plants (spray, inoculation)", "type": "in vivo", "conditions": "concentration for 50% efficacy", "experimental": "as §1, §2, §3, §4, §5"}, "[5]": {"test_system": "Leptosphaeria nodorum (plant affected: wheat)", "experiment": "protective action for plants (spray, inoculation)", "type": "in vivo", "conditions": "concentration for 50% efficacy", "experimental": "as §1, §2, §3, §4, §5"}, "[6]": {"test_system": "Sphaerotheca fuliginea (plant affected: cucumber)", "experiment": "protective action for plants (spray, inoculation)", "type": "in vivo", "conditions": "concentration for 50% efficacy", "experimental": "as §1, §2, §3, §4, §5"}, "[7]": {"test_system": "Pyricularia oryzae (plant affected: rice)", "type": "in vivo", "conditions": "concentration for 50% efficacy, protective"}, "[8]": {"biological_target": "yeast farnesyl-pyrophosphate synthase (Saccharomyces cerevisiae, UniProt P08524)", "conditions": "substrate of yeast farnesyl-pyrophosphate synthase"}, "[9]": {"test_system": "Phytophthora infestans (Plant affected: barley)", "type": "in vivo", "conditions": "concentration at which an efficacy of 50% was achieved, protective"}, "[10]": {"substrate": "C=C(C)CCO[P@@](=O)(O)OP(=O)(O)O", "experiment": "purified protein, by the assay type", "conditions": "other: substrate of yeast farnesyl-pyrophosphate synthase"}}, "data": [{"molecule": "COc1ccc(CN(CC(C)(C)CN)C(=O)c2cccc(C)c2)cc1-c1ccc(N2CCC(Cc3ccccc3)CC2)c(NC(=O)c2cccs2)c1", "note": "[Example 5]", "values": [{"measurement": "IC50", "setting": "[1]", "result": 25.1, "unit": "µM"}, {"measurement": "ED50", "setting": "[2]", "result": 548, "unit": "ppm"}, {"measurement": "ED50", "setting": "[3]", "result": 548, "unit": "ppm"}, {"measurement": "ED50", "setting": "[4]", "result": 548, "unit": "ppm"}, {"measurement": "ED50", "setting": "[5]", "result": 548, "unit": "ppm"}, {"measurement": "ED50", "setting": "[6]", "result": 548, "unit": "ppm"}, {"measurement": "ED50", "setting": "[7]", "result": 548, "unit": "ppm"}]}, {"molecule": "CC(C)=CCOP(=O)(O)OP(=O)(O)O", "note": "[dimethylallyl pyrophosphate]", "values": [{"measurement": "Km", "setting": "[8]", "result": 36, "unit": "µM"}]}, {"molecule": "CC(C)(CN)CN(C(=O)c1cccs1)c1ccc(-c2ccc(N3CCN(c4ccccn4)CC3)c(NC(=O)CCC3CCCC3)c2)cc1", "note": "[Example 4]", "values": [{"measurement": "IC50", "setting": "[1]", "result": 39.8, "unit": "µM"}, {"measurement": "ED50", "setting": "[2]", "result": 500, "unit": "ppm"}, {"measurement": "ED50", "setting": "[9]", "result": 500, "unit": "ppm"}]}, {"molecule": "CC(Oc1ccccc1)C(=O)Nc1cc(C(=O)N[C@@H](Cc2ccccc2)C(=O)O)ccc1N1CCN(C(c2ccccc2)c2ccccc2)CC1", "note": "(some centres unmarked) [Example 3]", "values": [{"measurement": "IC50", "setting": "[1]", "result": 31.6, "unit": "µM"}, {"measurement": "ED50", "setting": "[2]", "result": 500, "unit": "ppm"}, {"measurement": "ED50", "setting": "[9]", "result": 500, "unit": "ppm"}]}, {"molecule": "CC(=O)Nc1nc(-c2ccccc2OCC(N)=O)cc(-c2cccc(NC(=O)c3ccc([N+](=O)[O-])cc3)c2)c1C#N", "note": "[Example 2]", "values": [{"measurement": "IC50", "setting": "[1]", "result": 31.6, "unit": "µM"}]}, {"molecule": "CC(=O)[n+]1ccc(-c2cc[n+](C(C)=O)cc2)cc1", "note": "[Example 1]", "values": [{"measurement": "IC50", "setting": "[1]", "result": 7.41, "unit": "µM"}]}, {"molecule": "yeast farnesyl-pyrophosphate synthase (Saccharomyces cerevisiae S288C) (protein) MASEKEIRRERFLNVFPKLVEELNASLLAYGMPKEACDWYAHSLNYNTPGGKLNRGLSVVDTYAILSNKTVEQLGQEEYEKVAILGWCIELLQAYFLVADDMMDKSITRRGQPCWYKVPEVGEIAINDAFMLEAAIYKLLKSHFRNEKYYIDITELFHEVTFQTELGQLMDLITAPEDKVDLSKFSLKKHSFIVTFKTAYYSFYLPVALAMYVAGITDEKDLKQARDVLIPLGEYFQIQDDYLDCFGTPEQIGKIGTDIQDNKCSWVINKALELASAEQRKTLDENYGKKDSVAEAKCKKIFNDLKIEQLYHEYEESIAKDLKAKISQVDESRGFKADVLTAFLNKVYKRSK", "values": [{"measurement": "Km", "setting": "[10]", "result": 49, "unit": "µM"}]}]}
